Results: the NIST ThermoML archive (doi:10.1016/j.jct.2019.05.021)
Numbers after ± are expanded uncertainties.

Experiment: xn = mol fraction of the nth substance listed
Conditions: 100 kPa, Liquid; for viscosity: Falling or rolling sphere viscometry; for mass density: Vibrating tube method

CCCCCCCCCC(=O)OC [methyl decanoate] + CC1CCCCC1
Conditions	mass density [kg/m3]	viscosity [mPa·s]
293.15 K, x2 = 0	872.25 ± 1.8	2.125 ± 0.047
293.15 K, x2 = 0.0999	865.57 ± 1.8	1.953 ± 0.043
293.15 K, x2 = 0.2	858.32 ± 1.7	1.783 ± 0.039
293.15 K, x2 = 0.3	850.46 ± 1.7	1.618 ± 0.035
293.15 K, x2 = 0.4001	841.94 ± 1.7	1.464 ± 0.032
293.15 K, x2 = 0.4998	832.57 ± 1.7	1.316 ± 0.028
293.15 K, x2 = 0.5999	822.32 ± 1.6	1.177 ± 0.025
293.15 K, x2 = 0.6999	811 ± 1.6	1.051 ± 0.023
293.15 K, x2 = 0.8	798.51 ± 1.6	0.933 ± 0.02
293.15 K, x2 = 0.9	784.68 ± 1.6	0.825 ± 0.018
298.15 K, x2 = 0	868.16 ± 1.8	1.909 ± 0.042
298.15 K, x2 = 0.0999	861.49 ± 1.7	1.758 ± 0.038
298.15 K, x2 = 0.2	854.23 ± 1.7	1.613 ± 0.035
298.15 K, x2 = 0.3	846.38 ± 1.7	1.473 ± 0.032
298.15 K, x2 = 0.4001	837.84 ± 1.7	1.339 ± 0.029
298.15 K, x2 = 0.4998	828.47 ± 1.7	1.209 ± 0.026
298.15 K, x2 = 0.5999	818.2 ± 1.6	1.084 ± 0.023
298.15 K, x2 = 0.6999	806.84 ± 1.6	0.969 ± 0.021
298.15 K, x2 = 0.8	794.31 ± 1.6	0.862 ± 0.019
298.15 K, x2 = 0.9	780.43 ± 1.6	0.765 ± 0.016
303.15 K, x2 = 0	864.06 ± 1.8	1.738 ± 0.038
303.15 K, x2 = 0.0999	857.38 ± 1.7	1.603 ± 0.035
303.15 K, x2 = 0.2	850.12 ± 1.7	1.474 ± 0.032
303.15 K, x2 = 0.3	842.25 ± 1.7	1.35 ± 0.029
303.15 K, x2 = 0.4001	833.72 ± 1.7	1.232 ± 0.027
303.15 K, x2 = 0.4998	824.32 ± 1.7	1.12 ± 0.024
303.15 K, x2 = 0.5999	814.03 ± 1.6	1.012 ± 0.022
303.15 K, x2 = 0.6999	802.63 ± 1.6	0.907 ± 0.02
303.15 K, x2 = 0.8	790.09 ± 1.6	0.807 ± 0.017
303.15 K, x2 = 0.9	776.16 ± 1.6	0.716 ± 0.015
308.15 K, x2 = 0	859.96 ± 1.7	1.588 ± 0.035
308.15 K, x2 = 0.0999	853.28 ± 1.7	1.47 ± 0.032
308.15 K, x2 = 0.2	846.01 ± 1.7	1.357 ± 0.03
308.15 K, x2 = 0.3	838.14 ± 1.7	1.247 ± 0.027
308.15 K, x2 = 0.4001	829.57 ± 1.7	1.142 ± 0.025
308.15 K, x2 = 0.4998	820.17 ± 1.6	1.038 ± 0.022
308.15 K, x2 = 0.5999	809.84 ± 1.6	0.937 ± 0.02
308.15 K, x2 = 0.6999	798.43 ± 1.6	0.843 ± 0.018
308.15 K, x2 = 0.8	785.85 ± 1.6	0.754 ± 0.016
308.15 K, x2 = 0.9	771.88 ± 1.6	0.673 ± 0.014
313.15 K, x2 = 0	855.85 ± 1.7	1.453 ± 0.032
313.15 K, x2 = 0.0999	849.16 ± 1.7	1.351 ± 0.03
313.15 K, x2 = 0.2	841.89 ± 1.7	1.251 ± 0.027
313.15 K, x2 = 0.3	834.02 ± 1.7	1.152 ± 0.025
313.15 K, x2 = 0.4001	825.43 ± 1.7	1.057 ± 0.023
313.15 K, x2 = 0.4998	816.01 ± 1.6	0.963 ± 0.021
313.15 K, x2 = 0.5999	805.67 ± 1.6	0.872 ± 0.019
313.15 K, x2 = 0.6999	794.22 ± 1.6	0.787 ± 0.017
313.15 K, x2 = 0.8	781.6 ± 1.6	0.707 ± 0.015
313.15 K, x2 = 0.9	767.57 ± 1.5	0.631 ± 0.014
318.15 K, x2 = 0	851.74 ± 1.7	1.341 ± 0.029
318.15 K, x2 = 0.0999	845.04 ± 1.7	1.252 ± 0.027
318.15 K, x2 = 0.2	837.76 ± 1.7	1.161 ± 0.025
318.15 K, x2 = 0.3	829.87 ± 1.7	1.072 ± 0.023
318.15 K, x2 = 0.4001	821.28 ± 1.6	0.986 ± 0.021
318.15 K, x2 = 0.4998	811.84 ± 1.6	0.904 ± 0.02
318.15 K, x2 = 0.5999	801.47 ± 1.6	0.822 ± 0.018
318.15 K, x2 = 0.6999	789.99 ± 1.6	0.743 ± 0.016
318.15 K, x2 = 0.8	777.33 ± 1.6	0.668 ± 0.014
318.15 K, x2 = 0.9	763.25 ± 1.5	0.598 ± 0.013
323.15 K, x2 = 0	847.62 ± 1.7	1.245 ± 0.027
323.15 K, x2 = 0.0999	840.91 ± 1.7	1.163 ± 0.025
323.15 K, x2 = 0.2	833.62 ± 1.7	1.083 ± 0.024
323.15 K, x2 = 0.3	825.72 ± 1.7	1.003 ± 0.022
323.15 K, x2 = 0.4001	817.11 ± 1.6	0.925 ± 0.02
323.15 K, x2 = 0.4998	807.66 ± 1.6	0.847 ± 0.018
323.15 K, x2 = 0.5999	797.25 ± 1.6	0.772 ± 0.017
323.15 K, x2 = 0.6999	785.75 ± 1.6	0.7 ± 0.015
323.15 K, x2 = 0.8	773.05 ± 1.6	0.632 ± 0.014
323.15 K, x2 = 0.9	758.92 ± 1.5	0.567 ± 0.012

CCCCCCCCCCCC(=O)OC [methyl dodecanoate] + CC1CCCCC1
Conditions	mass density [kg/m3]	viscosity [mPa·s]
293.15 K, x2 = 0	869.3 ± 1.7	3.151 ± 0.067
293.15 K, x2 = 0.1	863.68 ± 1.7	2.838 ± 0.061
293.15 K, x2 = 0.2	857.47 ± 1.7	2.545 ± 0.054
293.15 K, x2 = 0.3	850.62 ± 1.7	2.264 ± 0.048
293.15 K, x2 = 0.4001	842.9 ± 1.7	2 ± 0.043
293.15 K, x2 = 0.5001	834.34 ± 1.7	1.743 ± 0.037
293.15 K, x2 = 0.6	824.66 ± 1.6	1.501 ± 0.032
293.15 K, x2 = 0.6999	813.62 ± 1.6	1.28 ± 0.027
293.15 K, x2 = 0.8	801 ± 1.6	1.071 ± 0.023
293.15 K, x2 = 0.8999	786.46 ± 1.6	0.887 ± 0.019
298.15 K, x2 = 0	865.39 ± 1.7	2.792 ± 0.06
298.15 K, x2 = 0.1	859.76 ± 1.7	2.527 ± 0.054
298.15 K, x2 = 0.2	853.54 ± 1.7	2.28 ± 0.049
298.15 K, x2 = 0.3	846.68 ± 1.7	2.041 ± 0.044
298.15 K, x2 = 0.4001	838.94 ± 1.7	1.811 ± 0.039
298.15 K, x2 = 0.5001	830.36 ± 1.7	1.587 ± 0.034
298.15 K, x2 = 0.6	820.65 ± 1.6	1.373 ± 0.029
298.15 K, x2 = 0.6999	809.56 ± 1.6	1.177 ± 0.025
298.15 K, x2 = 0.8	796.88 ± 1.6	0.992 ± 0.021
298.15 K, x2 = 0.8999	782.25 ± 1.6	0.825 ± 0.018
303.15 K, x2 = 0	861.46 ± 1.7	2.504 ± 0.054
303.15 K, x2 = 0.1	855.83 ± 1.7	2.279 ± 0.049
303.15 K, x2 = 0.2	849.6 ± 1.7	2.06 ± 0.044
303.15 K, x2 = 0.3	842.72 ± 1.7	1.85 ± 0.04
303.15 K, x2 = 0.4001	834.97 ± 1.7	1.646 ± 0.035
303.15 K, x2 = 0.5001	826.36 ± 1.7	1.448 ± 0.031
303.15 K, x2 = 0.6	816.61 ± 1.6	1.261 ± 0.027
303.15 K, x2 = 0.6999	805.48 ± 1.6	1.087 ± 0.023
303.15 K, x2 = 0.8	792.75 ± 1.6	0.919 ± 0.02
303.15 K, x2 = 0.8999	778.03 ± 1.6	0.77 ± 0.016
308.15 K, x2 = 0	857.53 ± 1.7	2.263 ± 0.048
308.15 K, x2 = 0.1	851.9 ± 1.7	2.064 ± 0.044
308.15 K, x2 = 0.2	845.67 ± 1.7	1.876 ± 0.04
308.15 K, x2 = 0.3	838.76 ± 1.7	1.693 ± 0.036
308.15 K, x2 = 0.4001	830.99 ± 1.7	1.512 ± 0.032
308.15 K, x2 = 0.5001	822.36 ± 1.6	1.339 ± 0.029
308.15 K, x2 = 0.6	812.57 ± 1.6	1.168 ± 0.025
308.15 K, x2 = 0.6999	801.4 ± 1.6	1.007 ± 0.022
308.15 K, x2 = 0.8	788.6 ± 1.6	0.858 ± 0.018
308.15 K, x2 = 0.8999	773.79 ± 1.6	0.722 ± 0.015
313.15 K, x2 = 0	853.61 ± 1.7	2.049 ± 0.044
313.15 K, x2 = 0.1	847.96 ± 1.7	1.877 ± 0.04
313.15 K, x2 = 0.2	841.71 ± 1.7	1.714 ± 0.037
313.15 K, x2 = 0.3	834.79 ± 1.7	1.552 ± 0.033
313.15 K, x2 = 0.4001	827.01 ± 1.7	1.393 ± 0.03
313.15 K, x2 = 0.5001	818.35 ± 1.6	1.237 ± 0.026
313.15 K, x2 = 0.6	808.52 ± 1.6	1.086 ± 0.023
313.15 K, x2 = 0.6999	797.31 ± 1.6	0.937 ± 0.02
313.15 K, x2 = 0.8	784.44 ± 1.6	0.801 ± 0.017
313.15 K, x2 = 0.8999	769.54 ± 1.6	0.676 ± 0.014
318.15 K, x2 = 0	849.69 ± 1.7	1.875 ± 0.04
318.15 K, x2 = 0.1	844.02 ± 1.7	1.725 ± 0.037
318.15 K, x2 = 0.2	837.77 ± 1.7	1.581 ± 0.034
318.15 K, x2 = 0.3	830.83 ± 1.7	1.437 ± 0.031
318.15 K, x2 = 0.4001	823.02 ± 1.6	1.294 ± 0.028
318.15 K, x2 = 0.5001	814.32 ± 1.6	1.151 ± 0.025
318.15 K, x2 = 0.6	804.45 ± 1.6	1.012 ± 0.022
318.15 K, x2 = 0.6999	793.18 ± 1.6	0.879 ± 0.019
318.15 K, x2 = 0.8	780.26 ± 1.6	0.754 ± 0.016
318.15 K, x2 = 0.8999	765.28 ± 1.5	0.638 ± 0.014
323.15 K, x2 = 0	845.76 ± 1.7	1.729 ± 0.037
323.15 K, x2 = 0.1	840.08 ± 1.7	1.592 ± 0.034
323.15 K, x2 = 0.2	833.81 ± 1.7	1.461 ± 0.031
323.15 K, x2 = 0.3	826.86 ± 1.7	1.332 ± 0.028
323.15 K, x2 = 0.4001	819.02 ± 1.6	1.202 ± 0.026
323.15 K, x2 = 0.5001	810.28 ± 1.6	1.073 ± 0.023
323.15 K, x2 = 0.6	800.37 ± 1.6	0.946 ± 0.02
323.15 K, x2 = 0.6999	789.06 ± 1.6	0.826 ± 0.018
323.15 K, x2 = 0.8	776.07 ± 1.6	0.711 ± 0.015
323.15 K, x2 = 0.8999	761 ± 1.5	0.603 ± 0.013
